Results as given in patent US20170253607A1, “LONG-ACTING HIV PROTEASE INHIBITOR” (Shionogi & Co., Ltd., priority 2014, published 2017).

Experiments:
[1] = Protein binding test (equilibrium dialysis, unbound ratio fu in serum); format: in vitro ADME; settings: rat serum, equilibrium dialysis 24 hours, 37° C., 2 μg/mL
In short: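 Compound at 2 μg/mL in serum was dialysed against PBS for 24 hours at 37° C. Both sides were quantified by LC/MS/MS, and fu was taken as the PBS concentration divided by the serum concentration.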

[2] = Evaluation of total body clearance (CLtot), intravenous administration; format: in vivo, Sprague-Dawley (SD); settings: rat (SD), intravenous administration 0.5-10 mg/kg; CLtot = dose/AUC
In short: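 Plasma levels quantified by LC/MS/MS after intravenous tail-vein dosing (0.5-10 mg/kg, compound-dependent; n=2-3). AUC from pharmacokinetic analysis; total clearance calculated as dose/AUC.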

HIV-1 PR = HIV-1 PR (Human immunodeficiency virus type 1 group M subtype B, UniProt P04585); test: HIV-protease inhibitory activity assay (FRET peptide substrate); format: biochemical; settings: Test Example 1
In short: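 HIV-1 PR (0.83 ng) preincubated with compounds 20 min at room temperature in 0.1 mol/L NaAc, 0.5 mol/L NaCl, 1 mmol/L EDTA, 1 mmol/L DTT, 0.05% Tween 20, pH 4.8. Cleavage of HiLyte Fluor 488/QXL 520 FRET peptide (2 μmol/L) read after 60 minutes at 485/535 nm; IC50 from four-parameter logistic fit.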

In the case of `COc1ccc(S(=O)(=O)N(CC(C)C)CC(O)C(Cc2ccccc2)NC(=O)OC2COC3(COC(=O)NCc4sc5c(c4C(=O)O)CC(C)(C)CC5)OCCC23)cc1` (stereo not drawn) [Compound I-780], the rat_fu [1] is reported as <0.1%, the rat_CLt [2] is reported as 0.134 L/h/kg and the IC50 (HIV-1 PR) is reported as 1.64 nM.

With `COc1ccc(S(=O)(=O)N(CC(C)C)CC(O)C(Cc2ccc(N(C)Cc3ccccc3-n3nc4c(c3C(=O)O)CC(C)(C)CC4)cc2)NC(=O)OC2COC3(C)OCCC23)cc1` (stereo not drawn) [Compound I-349] the rat_fu [1] was <0.1%, the rat_CLt [2] was 0.0426 L/h/kg and the IC50 (HIV-1 PR) was 2.33 nM.

For `CC(C)CN(CC(O)C(Cc1ccc(CCc2sc3c(c2C(=O)O)CC(C)(C)CC3)cc1)NC(=O)OC1COC2(C)OCCC12)S(=O)(=O)c1ccc(N)cc1` (stereo not drawn) [Compound I-43], the rat_fu [1] was <0.1%, the rat_CLt [2] was 0.191 L/h/kg and the IC50 (HIV-1 PR) was 2 nM.

For `COc1ccc(S(=O)(=O)N(CC(C)C)CC(O)C(Cc2ccc(OCc3ccccc3-c3sc4c(c3C(=O)O)CCC4)cc2)NC(=O)OC2COC3OCCC23)cc1` (stereo not drawn) [Compound I-832], the rat_fu [1] was <0.1%, the rat_CLt [2] was 0.245 L/h/kg and the IC50 (HIV-1 PR) was 1.16 nM.

In the case of `COc1ccc(S(=O)(=O)N(CC(C)C)CC(O)C(Cc2ccc(N3CCC(Oc4ccccc4-c4sc5c(c4C(=O)O)CC(C)(C)CC5)C3)cc2)NC(=O)OC2COC3(C)OCCC23)cc1` (stereo not drawn) [Compound I-235], the rat_fu [1] is reported as <0.1%, the rat_CLt [2] is reported as 0.243 L/h/kg and the IC50 (HIV-1 PR) is reported as 3.56 nM.

With `COc1ccc(S(=O)(=O)N(CC(C)C)CC(O)C(Cc2ccc(N(C)CCCc3ccccc3-c3sc4c(c3C(=O)O)CC(C)(C)CC4)cc2)NC(=O)OC2COC3(C)OCCC23)cc1` (stereo not drawn) [Compound I-240] the rat_fu [1] was <0.1%, the rat_CLt [2] was 0.27 L/h/kg and the IC50 (HIV-1 PR) was 2.02 nM.

For `COc1ccc(S(=O)(=O)N(CC(C)C)CC(O)C(Cc2ccc(N3CCC(Oc4ccccc4-c4sc5c(c4C(=O)O)CC(C)(C)CC5)C3)cc2)NC(=O)OC2COC3(C)OCCC23)cc1` (stereo not drawn) [Compound I-234], the rat_fu [1] was <0.1%, the rat_CLt [2] was 0.0894 L/h/kg and the IC50 (HIV-1 PR) was 3.5 nM.

With `COc1ccc(S(=O)(=O)N(CC(C)C)CC(O)C(Cc2ccc(NC3Cc4cccc(-c5sc6c(c5C(=O)O)CC(C)(C)CC6)c4C3)cc2)NC(=O)OC2COC3(C)OCCC23)cc1` (stereo not drawn) [Compound I-242] the rat_fu [1] was <0.1%, the rat_CLt [2] was 0.0245 L/h/kg and the IC50 (HIV-1 PR) was 3.11 nM.

For `COc1ccc(S(=O)(=O)N(CC(C)C)CC(O)C(Cc2ccc(OCc3ncccc3-c3ccc(-c4sc5c(c4C(=O)O)CC(C)(C)CC5)cc3)cc2)NC(=O)OC2COC3(C)OCCC23)cc1` (stereo not drawn) [Compound I-44], the rat_fu [1] was <0.1%, the rat_CLt [2] was 0.0321 L/h/kg and the IC50 (HIV-1 PR) was 1.09 nM.

With `COc1ccc(S(=O)(=O)N(CC(C)C)CC(O)C(Cc2ccc(OCc3cc(C#N)ccc3-c3sc4c(c3C(=O)O)CC(C)(C)CC4)cc2)NC(=O)OC2COC3(C)OCCC23)cc1` (stereo not drawn) [Compound I-79] the rat_fu [1] was <0.1%, the rat_CLt [2] was 0.189 L/h/kg and the IC50 (HIV-1 PR) was 1.74 nM.

With `COc1ccc(S(=O)(=O)N(CC(C)C)CC(O)C(Cc2ccc(OCc3ccccc3-c3ncc4c(c3C(=O)O)CCC(C)(C)C4)cc2)NC(=O)OC2COC3(C)OCCC23)cc1` (stereo not drawn) [Compound I-197] the rat_fu [1] was <0.1%, the rat_CLt [2] was 0.229 L/h/kg and the IC50 (HIV-1 PR) was 1.94 nM.

For `CC(C)CN(CC(O)C(Cc1ccc(OCc2ccccc2-c2ccc3c(c2)C(=O)C(c2ccc(F)cc2)C3=O)cc1)NC(=O)OC1COC2(C)OCCC12)S(=O)(=O)c1ccc2ncsc2c1` (stereo not drawn) [Compound I-175], the rat_fu [1] was <0.1%, the rat_CLt [2] was 0.266 L/h/kg and the IC50 (HIV-1 PR) was 2 nM.

For `COc1ccc(S(=O)(=O)N(CC(C)C)CC(O)C(Cc2ccc(NCC3=C(c4sc5c(c4C(=O)O)CC(C)(C)CC5)CCCC3)cc2)NC(=O)OC2COC3(C)OCCC23)cc1` (stereo not drawn) [Compound I-231], the rat_fu [1] was <0.1%, the rat_CLt [2] was 0.0612 L/h/kg and the IC50 (HIV-1 PR) was 3.91 nM.

In the case of `COc1ccc(S(=O)(=O)N(CC(C)C)CC(O)C(Cc2ccc(N(C)CC3=C(c4sc5c(c4C(=O)O)CC(C)(C)CC5)CCCC3)cc2)NC(=O)OC2COC3(C)OCCC23)cc1` (stereo not drawn) [Compound I-236], the rat_fu [1] is reported as <0.1%, the rat_CLt [2] is reported as 0.0458 L/h/kg and the IC50 (HIV-1 PR) is reported as 2.9 nM.

With `COc1ccc(S(=O)(=O)N(CC(C)C)CC(O)C(Cc2ccc(OCc3cc(N(C)C)ccc3-c3sc4c(c3C(=O)O)CC(C)(C)CC4)cc2)NC(=O)OC2COC3(C)OCCC23)cc1` (stereo not drawn) [Compound I-206] the rat_fu [1] was <0.1%, the rat_CLt [2] was 0.00972 L/h/kg and the IC50 (HIV-1 PR) was 3.38 nM.

In the case of `COc1ccc(S(=O)(=O)N(CC(C)C)CC(O)C(Cc2ccc(NCCCc3ccccc3-c3sc4c(c3C(=O)O)CC(C)(C)CC4)cc2)NC(=O)OC2COC3(C)OCCC23)cc1` (stereo not drawn) [Compound I-260], the rat_fu [1] is reported as <0.1%, the rat_CLt [2] is reported as 0.0481 L/h/kg and the IC50 (HIV-1 PR) is reported as 2.96 nM.

For `CC1(C)CCc2sc(-c3ccc(OCCN(CC(O)C(Cc4ccccc4)NC(=O)OC4COC5(C)OCCC45)S(=O)(=O)c4ccc5ncsc5c4)cc3)c(C(=O)O)c2C1` (stereo not drawn) [Compound I-165], the rat_fu [1] was <0.1%, the rat_CLt [2] was 0.0648 L/h/kg and the IC50 (HIV-1 PR) was 3.21 nM.

For `COc1ccc(S(=O)(=O)N(CC(C)C)CC(O)C(Cc2ccc(OCc3ccccc3-c3sc(Cl)c(C4CCCCC4)c3C(=O)O)cc2)NC(=O)OC2COC3OCCC23)cc1` (stereo not drawn) [Compound I-825], the rat_fu [1] was <0.1%, the rat_CLt [2] was 0.313 L/h/kg and the IC50 (HIV-1 PR) was 1.02 nM.

In the case of `COc1ccc(S(=O)(=O)N(CC(C)C)CC(O)C(Cc2ccc(NCCc3ccccc3-c3sc4c(c3C(=O)O)CC(C)(C)CC4)cc2)NC(=O)OC2COC3(C)OCCC23)cc1` (stereo not drawn) [Compound I-262], the rat_fu [1] is reported as <0.1%, the rat_CLt [2] is reported as 0.0206 L/h/kg and the IC50 (HIV-1 PR) is reported as 3.95 nM.

With `Cc1cc(Oc2ccc(CC(NC(=O)OC3COC4OCCC34)C(O)CN(CC(C)C)S(=O)(=O)c3ccc4c(c3)OCO4)cc2)ccc1-c1sc2c(c1C(=O)O)CC(C)(C)CC2` (stereo not drawn) [Compound I-835] the rat_fu [1] was <0.1%, the rat_CLt [2] was 0.0978 L/h/kg and the IC50 (HIV-1 PR) was 2.81 nM.

In the case of `CC(C)CN(CC(O)C(Cc1ccc(OCc2ccccc2-c2sc3c(c2C(=O)O)CC(C)(C)CC3)cc1)NC(=O)OC1COC2(C)OCCC12)S(=O)(=O)c1ccc2nc(O)sc2c1` (stereo not drawn) [Compound I-131], the rat_fu [1] is reported as <0.1%, the rat_CLt [2] is reported as 0.136 L/h/kg and the IC50 (HIV-1 PR) is reported as 2.12 nM.

For `Cc1cc(OCCN(CC(O)C(Cc2ccccc2)NC(=O)OC2COC3(C)OCCC23)S(=O)(=O)c2ccc3ncsc3c2)ccc1-c1sc2c(c1C(=O)O)CC(C)(C)CC2` (stereo not drawn) [Compound I-166], the rat_fu [1] was <0.1%, the rat_CLt [2] was 0.0116 L/h/kg and the IC50 (HIV-1 PR) was 8.83 nM.

For `COc1ccc(S(=O)(=O)N(CC(C)C)CC(O)C(Cc2ccc(NCc3ncccc3-c3ccc(-c4sc5c(c4C(=O)O)CC(C)(C)CC5)cc3)cc2)NC(=O)OC2COC3(C)OCCC23)cc1` (stereo not drawn) [Compound I-415], the rat_fu [1] was <0.1%, the rat_CLt [2] was 0.0396 L/h/kg and the IC50 (HIV-1 PR) was 2.55 nM.

With `COc1ccc(S(=O)(=O)N(CC(C)C)CC(O)C(Cc2ccc(NCc3ncc(-c4sc5c(c4C(=O)O)CC(C)(C)CC5)s3)cc2)NC(=O)OC2COC3(C)OCCC23)cc1` (stereo not drawn) [Compound I-297] the rat_fu [1] was <0.1%, the rat_CLt [2] was 0.212 L/h/kg and the IC50 (HIV-1 PR) was 1.82 nM.

In the case of `CC(C)CN(CC(O)C(Cc1ccc(OCc2ccccc2-c2sc3c(c2C(=O)O)CC(C)(C)CC3)cc1)NC(=O)OC1COC2(C)OCCC12)S(=O)(=O)c1ccc2c(c1)OCO2` (stereo not drawn) [Compound I-132], the rat_fu [1] is reported as <0.1%, the rat_CLt [2] is reported as 0.0226 L/h/kg and the IC50 (HIV-1 PR) is reported as 2.66 nM.

In the case of `COc1ccc(S(=O)(=O)N(CC(C)C)C[C@@H](O)[C@H](Cc2ccc(OCc3ccccc3-c3sc4c(c3C(=O)O)CCCC4=O)cc2)NC(=O)O[C@H]2CO[C@@]3(C)OCC[C@@H]23)cc1` [Compound I-2], the rat_fu [1] is reported as <0.1%, the rat_CLt [2] is reported as 0.307 L/h/kg and the IC50 (HIV-1 PR) is reported as 1.05 nM.
